Experimental data: patent publication US10201586B2 (dated 2019)
Each block holds one molecule with its values, some of them ahead of it. Where a SMILES comes first, the peptide text is derived from it. Bridges are numbered along the chain shown (N, C = ends). [ ]: non-standard residue; d: D form. Tle = CC(C)(C)[C@H](N)C(=O)O; Aib = CC(C)(N)C(=O)O

Columns and labels:
[1] = biological target: T1, TFPI (Homo sapiens, UniProt P10646); test: IC50 Mean (nM]
[2] = biological target: T1, TFPI; test: IC50 [nM]
[3] = biological target: T1, TFPI; test: IC50 [nM]; remark: listed apart in the source
[4] = biological target: T1, TFPI; test: IC50 [nm]
[5] = biological target: Tissue Factor Pathway Inhibitor (TFPI) (Homo sapiens, UniProt P10646); test: IC50 ELISA | IC50 [nM]
[6] = plasma stability in human plasma; format: in vitro ADME; details: 24 hour
[7] = tested on: C57B1/6NCr1 mice; test: nail clip blood loss study; format: in vivo, mouse
[8] = tested on: human whole blood clot formation; test: rotation thromboelastography (ROTEM); details: Hem A (FVIII-inhibited) human whole blood
[9] = tested on: FIX knock-out mice; test: tail-tip bleed model; format: in vivo, mouse
Experimental: The amount of blood was determined gravimetrically.
JBT2329 also was tested in a FIX knock-out tail-tip bleed mouse model, which is a clinically-relevant model for hemophilia B human patients. The methodology was substantially similar to that described above with respect to the FVIII knock-out model. Instead of ADVATE, a recombinant FIX (rFIX) served as a reference. Median total blood loss in buffer-treated animals was 935 mg. Median total blood loss in animals treated with a murine anti-TFPI antibody (maTFPI) was 774 mg. Median total blood loss was reduced further when the animals received combined treatment of maTFPI and rFIX.

[10] = pharmacokinetic analysis in mice; format: in vivo, mouse; details: C57B16 mice, 1 mg/kg (peptide content)
[11] = tested on: FVIII knock-out mice; details: 1 mg/kg JBT2329 without ADVATE

T1 sequence (P10646 29-304 limits assumed): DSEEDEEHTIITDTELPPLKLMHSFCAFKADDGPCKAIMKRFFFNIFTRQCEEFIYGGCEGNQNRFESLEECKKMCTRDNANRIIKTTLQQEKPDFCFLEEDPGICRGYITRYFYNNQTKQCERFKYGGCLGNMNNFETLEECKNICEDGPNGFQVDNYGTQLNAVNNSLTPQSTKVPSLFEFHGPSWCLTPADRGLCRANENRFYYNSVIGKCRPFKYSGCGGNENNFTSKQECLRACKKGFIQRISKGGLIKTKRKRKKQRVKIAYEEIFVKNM
Chain of Tissue Factor Pathway Inhibitor (TFPI) (P10646 29-304 limits assumed): as above

Molecule: CC[C@H](C)[C@H](NC(=O)[C@@H](NC(=O)CNC(=O)[C@@H]1CCCN1C(=O)CNC(=O)[C@H](Cc1c[nH]c2ccccc12)NC(=O)[C@@H](NC(=O)[C@@H](NC(=O)[C@H](CCCCN)NC(=O)[C@H](CO)NC(=O)[C@H](Cc1c[nH]c2ccccc12)NC(=O)[C@H](Cc1ccccc1)NC(=O)[C@H](Cc1ccc(O)cc1)NC(=O)[C@@H](NC(=O)[C@H](Cc1c[nH]c2ccccc12)NC(=O)[C@H](CC(=O)O)NC(=O)CNC(=O)[C@@H](NC(=O)[C@H](CC(C)C)NC(=O)[C@H](CCCCN)NC(=O)[C@H](CCCCN)NC(C)=O)[C@@H](C)O)[C@@H](C)O)C(C)C)[C@@H](C)CC)C(C)C)C(=O)N[C@@H](CCC(=O)O)C(=O)N[C@@H](CCCNC(=N)N)C(=O)N[C@@H](CCC(N)=O)C(=O)N[C@@H](CCSC)C(=O)N1CCC[C@H]1C(=O)N[C@H](C(=O)N[C@@H](CO)C(=O)N[C@H](C(=O)N[C@@H](Cc1ccccc1)C(=O)N[C@@H](Cc1c[nH]cn1)C(=O)N[C@@H](CCCCN)C(=O)N[C@@H](CCCCN)C(N)=O)[C@@H](C)O)C(C)C [JBT0177* | 3065] (Ac-KKLTGDWTYFWSKVIWGPGVIERQMPVSTFHKK-NH2)
IC50 [1]: > 50 µM

Molecule: CSCC[C@@H]1NC(=O)[C@H](C)NC(=O)[C@@H](NC(=O)[C@H](Cc2c[nH]cn2)NC(=O)[C@H](Cc2c[nH]c3ccccc23)NC(=O)[C@H](CCCCN)NC(=O)[C@H](Cc2ccc(O)cc2)NC(=O)[C@H](Cc2c[nH]cn2)NC(=O)[C@H](CO)NC(C)=O)CSSC[C@@H](C(=O)N[C@@H](C)C(=O)N[C@@H](Cc2c[nH]c3ccccc23)C(=O)N[C@H](C(=O)N[C@@H](CCCCN)C(=O)N[C@@H](Cc2ccccc2)C(N)=O)C(C)C)NC(=O)[C@H](CO)NC(=O)[C@H](CCSC)NC(=O)[C@H]([C@@H](C)O)NC(=O)CNC(=O)[C@H](CCCCN)NC(=O)[C@H](CCSC)NC(=O)[C@H](CC(=O)O)NC(=O)[C@H](CCCNC(=N)N)NC1=O [JBT1842 | 1046] (Ac-SHYKWHCAMRDMKGTMSCAWVKF-NH2; disulfide 7-18)
IC50 [4]: 0.009 µM

Molecule: Ac-FQSKpNVHVDGYFERL-Aib-AKLC(PEG)-NH2 [JBT2329]
Human Plasma Stability, 24 hour (%) [6]: 67.3% | blood loss, second 30 minute period ([7]; 0.1 mg/kg i.v.): 18.7 µL | reduction of blood loss vs vehicle, first 30 minutes ([7]; 0.1 mg/kg i.v.): about 50% | reduction of blood loss vs vehicle, second 30 minute period ([7]; 0.1 mg/kg i.v.): about 64% | reduction of total blood loss over 60 minutes vs vehicle ([7]; 0.1 mg/kg i.v.): ~60% | total blood loss over 60 minutes ([7]; 0.1 mg/kg i.v.): 34.7 µL | blood loss, first 30 minutes ([7]; 0.1 mg/kg i.v., naive C57BL6 mice): 16.0 µL | blood loss, entire 60 minute collection period ([7]; 1.0 mg/kg i.v.): 22.8 µL | blood loss, first 30 minutes ([7]; 1.0 mg/kg i.v.): 12.2 µL | blood loss, second 30 minute period ([7]; 1.0 mg/kg i.v.): 10.6 µL | reduction of blood loss during 60 minutes vs vehicle ([7]; 10 mg/kg subcutaneous): approximately 58% | coagulation parameters [8]: restored prolonged coagulation parameters in Hem A blood | median total blood loss vs buffer ([9]; 1 mg/kg JBT2329 alone (p=0.321)): did not lead to a significant reduction in median total blood loss | Efficacy vs buffer at a […] level ([9]; JBT2329 1 mg/kg or 0.1 mg/kg in combination with 10 IU/kg rFIX): statistically significant superiority over buffer | HL_λ_z [h] (intravenous) ([10]; intravenous): 19.8 h | Bioavailability [%] (s.c.) ([10]; s.c. AUC vs i.v. AUC): 73.3% | median total blood loss vs buffer [11]: did not reduce median total blood loss

More lines, now with the values ahead:

IC50 [2]: 17 µM
Molecule: CSCC[C@H](NC(=O)[C@H](CCC(=O)O)NC(=O)[C@H](CCCCN)NC(=O)[C@H](CO)NC(=O)[C@H](CCCNC(=N)N)NC(=O)[C@H](CCCCN)NC(=O)[C@H](CO)NC(=O)[C@@H](NC(=O)[C@H](Cc1c[nH]cn1)NC(=O)[C@H](CC(C)C)NC(=O)[C@H](CCC(N)=O)NC(=O)[C@@H](NC(=O)[C@H](C)NC(=O)[C@H](CC(C)C)NC(=O)[C@@H]1CCCN1C(=O)[C@H](CCCCN)NC(=O)[C@H](CCCCN)NC(C)=O)C(C)C)C(C)C)C(=O)N[C@@H](C)C(=O)N[C@@H](CC(C)C)C(=O)N[C@@H](C)C(=O)N[C@@H](CCCNC(=N)N)C(=O)N[C@@H](CC(C)C)C(=O)N[C@@H](Cc1ccc(O)cc1)C(=O)N[C@@H](Cc1ccc(O)cc1)C(=O)N[C@@H](CCCCN)C(=O)N[C@H](C(=O)N[C@@H](CO)C(=O)N[C@@H](CCCCN)C(=O)N[C@@H](CCCCN)C(N)=O)[C@@H](C)O [JBT0229 | 2129] (Ac-KKPLAVQLHVSKRSKEMALARLYYKTSKK-NH2)

IC50 [3]: 12.9 µM
Molecule: CC[C@H](C)[C@H](NC(=O)[C@H](CCC(=O)O)NC(=O)[C@H](CCCCN)NC(=O)[C@H](CO)NC(=O)[C@H](CCCNC(=N)N)NC(=O)[C@H](CCCCN)NC(=O)[C@H](CO)NC(=O)[C@@H](NC(=O)[C@H](Cc1c[nH]cn1)NC(=O)[C@H](CC(C)C)NC(=O)[C@H](CCC(N)=O)NC(=O)[C@@H](NC(=O)[C@H](C)NC(=O)[C@H](CCC(N)=O)NC(=O)[C@H](Cc1c[nH]c2ccccc12)NC(=O)[C@H](Cc1ccccc1)NC(=O)[C@H](CO)NC(=O)[C@H](C)NC(=O)[C@H](Cc1ccc(O)cc1)NC(=O)CNC(C)=O)C(C)C)C(C)C)C(=O)N[C@@H](C)C(N)=O [JBT1663 | 2146] (Ac-GYASFWQAVQLHVSKRSKEIA-NH2)

IC50 [5]: 0.0105 µM
Molecule: CC(=O)N[C@@H](Cc1ccccc1)C(=O)N[C@@H](CCC(N)=O)C(=O)N[C@@H](CC(=O)O)C(=O)N[C@@H](CCCCN)C(=O)N1CCC[C@@H]1C(=O)N[C@@H](CC(N)=O)C(=O)N[C@H](C(=O)N[C@@H](Cc1c[nH]cn1)C(=O)N[C@H](C(=O)N[C@@H](CC(=O)O)C(=O)NCC(=O)N[C@@H](Cc1ccc(O)cc1)C(=O)N[C@@H](Cc1ccccc1)C(=O)N[C@@H](CCC(=O)O)C(=O)N[C@@H](CCCNC(=N)N)C(=O)N[C@@H](CC(C)C)C(=O)NC(C)(C)C(=O)N[C@@H](C)C(=O)N[C@@H](CCCCN)C(=O)N[C@@H](CC(C)C)C(N)=O)C(C)(C)C)C(C)C [JBT2426 | 4144, Ac-FQDKpNVH-Tle-DGYFERL-Aib-AKL-NH2] (Ac-FQDK[dP]NVH[Tle]DGYFERL[Aib]AKL-NH2)
